From patent EP0090368A1, “Anthelmintic preparations” (priority 1982, dated 1983)

Key:
[1] = Safety on oral administration to cattle (Example 12); conditions: bovine, in vivo, selenium, cobalt and fenbendazole in combination (preparation of Example 3), read-out: oral administration with no adverse effect observed
Method: The safety of the composition of Example 3 on oral administration to cattle was investigated: • A total of 16 cattle were treated-orally with the preparation of Example 3. Eight Friesian heifers weighing between 330 and 420 kg were treated with the preparation at the recommended dose of 7.5 ml per 100 kg body weight. Four Friesian cattle weighing between 930 and 990 kg were treated orally with the preparation at five times the recommended dose i.e. 37.5 ml per 100 kg. A further four Friesan cattle weighing between 870 and 1030 kg were treated orally with the preparation at ten times the recommended dose i.e. […].
The cattle were observed daily for a period of 21 days following treatment for any signs at adverse effect.

[2] = Toxicity in lambs, daily clinical examinations after oral treatment (Example 2); conditions: sheep, in vivo, per os, given together with fenbendazole as developmental formulation, read-out: oral dose levels tolerated, no signs of drug toxicity
Method: Animals: Twenty, six to eight month old lambs were made available for the purpose of this investigation. The lambs were allocated to five groups (n = 4) on the basis of mean faecal egg counts determined on each of three successive days.
Prior to treatment, all lambs were weighed. Lambs were maintained at grass as a single group for the duration of the study.
• Group 1: Untreated controls • Group 2: Treated with 5 mg/kg fenbendazole as Panacur 2.5 % Suspension (Commercial batch, "Panacur", is a Trade Mark) Composition of Panacur 2.5 % : as described in Example 1 with the omission of the selenium and cobalt components. • Group 3: Treated with 5 mg/kg fenbendazole as a developmental formulation (see below) • Group 4: Treated with 25 mg/kg fenbendazole as a developmental formulation (see below) • Group 5: Treated with 50 mg/kg fenbendazole as a developmental formulation (see below)
Groups 4 and 5 thus received five and ten times respectively the recommended dose of fenbendazole and cobalt, and 12.5 and 25 times respectively the recommended dose of selenium.
Clinical examinations were carried out on all lambs daily post treatment for the duration of the study.

[3] = per os, sheep; cited from earlier work

Row | SMILES | NOAEL at 504 h [1] [mg/kg] | NOAEL [2] [mg/kg] | LD50 [3] [mg/kg]
1 | COC(=O)Nc1nc2ccc(Sc3ccccc3)cc2[nH]1 [Fenbendazole, 5-Phenyl-thio-2-benzimidazolecarbamic acid methylester, reference compound] | ≤ 75 |  | 
2 | [Se] [elemental selenium] | ≥ 20 | ≥ 2 | 0.5
